Laboratory results from US20080311126A1, “Antisense Oligonucleotides Directed to Ribonucleotide Reducatase R2 and Uses Thereof in Combination Therapies for the Treatment of Cancer” (Genesense Technologies, Inc, priority 2004, published 2008).
Oligonucleotides are written 5' to 3', each unit as a sugar letter and its base; * is a phosphorothioate linkage, no mark a phosphodiester; rarer units and linkages stand in square brackets, end groups in braces. Plain capitals give the bases only. d = 2'-deoxy (DNA)

Columns and labels:
[1] = test system: Hela S3 cells; assay: Sensitization to chemotherapeutics by AS-II-2229B-20, relative colony forming efficiency; type: cell-based, human; settings: HeLa S3
Procedure: (§1) Colony forming efficiency was determined using standard protocols. Briefly, the cells were cultured for 24 hours at 37° C. in growth medium with 10% fetal bovine serum. The cells were washed in 5 ml phosphate buffered saline, pH 7.2, once prior to lipofectin +/−oligonucleotide treatment.
(§2) The test oligonucleotides were added to cell cultures in the presence of 2.5 μg of DOTMA/DOPE (Lipofectin; Life Technologies, Inc.) for four hours. The oligonucleotide was tested at 0.2 μM unless otherwise indicated. Controls were the cultures treated with lipofectin but without the oligonucleotide. After 4 hours the medium containing the oligonucleotide was removed and washed with 5 ml of growth medium. The cells were then cultured in growth medium containing 10% fetal bovine serum for seven to ten days. Surviving cells were visualized by methylene blue staining, and colonies were scored. In some experiments cell aliquots were removed from the culture and viability was determined using the trypan blue exclusion test. Results were analyzed as percent of surviving cells compared to control cells.
(§3) Treatment of human tumour cells with very low concentrations of short antisense sequences was tested to determine if these constructs could sensitize the tumour cells to inhibitory effects of other chemotherapeutic drugs.

[2] = test system: Hela 1 mM cells; assay: as above; type: cell-based, human; settings: HeLa 1 mM
Procedure: as §1, §2, §3

[3] = test system: HT-29 human colon cancer cells; assay: HT-29 colon tumour xenograft in CD-1 nude mice; type: in vivo
Procedure: HT-29 human colon cancer cells (3×10^6 cells in 100 μl of PBS) were subcutaneously injected into the right flank of 6-7 weeks old female CD-1 nude mice. After the size of tumour reached an approximate volume of 50 mm^3, 4 days post tumour cell injection, mitomycin C was administered by bolus infusion into the tail vein at days 4, 11 and 18 with a dose of 3.5 mg/kg/week. Antitumour effect of mitomycin C was further compared to that of SEQ ID NO:1 in combination with mitomycin C. SEQ ID NO:1 was administered by bolus infusion into the tail vein every day at 6 mg/kg and mitomycin C was administered intravenously at days 4, 11 and 18 with a dose of 3.5 mg/kg/week, one hour after the treatments with SEQ ID NO:1. Control animals received saline alone for the same period as SEQ ID NO:1. All treatments were stopped at day 22. A day after the last treatment, tumours were excised from the animals and their weights were measured.
HT-29 human colon cancer cells (3×10^6 cells in 100 μl of PBS) were subcutaneously injected into the right flank of 5-6 week old female CD-1 nude mice. After the size of tumour reached an approximate volume of 100 mm^3, 7 days post tumour cell injection, SEQ ID NO:1 was administered by bolus infusion into the tail vein every other day at 10 mg/kg. Control animals received saline alone for the same period. Antitumour effect of SEQ ID NO:1 was further compared to that of CPT-11 alone or that of SEQ ID NO:1 in combination with CPT-11. CPT-11 was administered intraperitoneally for 5 days in a row from […] with a dose of 20 mg/kg in 100 μl saline. All treatments were stopped at day 32. A day after the last treatment, tumours were excised from the animals and their weights were measured.
HT-29 human colon cancer cells (3×10^6 cells in 100 μl of PBS) were subcutaneously injected into the right flank of 6-7 week old female CD-1 nude mice. Treatments started at day 5 post tumour cell injection, SEQ ID NO:1 and 5-FU were administered as outlined below: • Groups and treatment: • Group 1. Saline treated group: saline:0.1 ml/2 days, i.v.; • Group 2. SEQ ID NO:1 treated group: 10 mg/kg/2 days in 100 μL saline, i.v.; • Group 3. 5-FU treated group:13 mg/kg/5 days/week (one week on and one week off), i.v.; • Group 4. SEQ ID NO:1 plus 5-FU treated group.
HT-29 human colon cancer cells (3×10^6 cells in 100 μl of PBS) were subcutaneously injected into the right flank of 5-6 week old female CD-1 nude mice. Treatments started 4 days post tumour cell injection, SEQ ID NO: 1 and Capecitabine were administered as outlined below: • Group and Treatment: • Group 1: treated with 0.2 ml vehicle solution for capecitabine, o.p.; • Group 2: treated with 0.1 ml saline, i.v.; • Group 3: treated with 359 mg/kg/day×5/w Capecitabine in 0.2 ml vehicle solution, o.p.; • Group 4: treated with 10 mg/kg/2 days SEQ ID NO:1 in 0.1 ml saline i.v.; • Group 5: treated with 10 mg/kg/2 days SEQ ID NO:1 in 0.1 ml saline, i.v. plus 359 mg/kg/day×5/w capecitabine in 0.2 ml vehicle solution, o.p.

[4] = test system: HepG2 hepatocellular carcinoma; assay: Relative colony forming efficiency (Example 17, Table 13); type: cell-based, human; settings: averages of 2-8 determinations
Summary of the method: (§4)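 Antisense phosphorothioates are tested at 0.2 μM unless stated, transfected with DOTMA/DOPE (2.5 μg) for four hours. Colony counts after methylene blue staining give percent inhibition versus vehicle-lipid controls.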

[5] = test system: PC-3 prostrate cell adenocarcinoma; assay: as above; type: cell-based, human; settings: averages of 2-8 determinations
Summary of the method: as §4

[6] = test system: A549 lung cell carcinoma; assay: as above; type: cell-based, human; settings: averages of 2-8 determinations
Summary of the method: as §4

[7] = test system: MDA PaCa-2 pancreatic cell carcinoma; assay: as above; type: cell-based, human; settings: MIA PaCa-2 pancreatic cell carcinoma; averages of 2-8 determinations
Summary of the method: as §4

[8] = test system: T24 bladder cell carcinoma; assay: as above; type: cell-based, human; settings: averages of 2-8 determinations
Summary of the method: as §4

[9] = test system: H596 lung adenosquamous carcinoma cells; assay: as above; type: cell-based, human; settings: averages of 2-8 determinations
Summary of the method: as §4

[10] = test system: HCT116 colon cell carcinoma; assay: as above; type: cell-based, human; settings: averages of 2-8 determinations
Summary of the method: as §4

[11] = test system: T-47D breast ductal carcinoma; assay: as above; type: cell-based, human; settings: averages of 2-8 determinations
Summary of the method: as §4

[12] = test system: MDA-MB-231 breast cell adenocarcinoma; assay: as above; type: cell-based, human; settings: averages of 2-8 determinations
Summary of the method: as §4

[13] = test system: Hela S3 cells; assay: Relative colony forming efficiency, lipofectin +/- oligonucleotide 4 hours; type: cell-based, human; settings: Hela S3 cervix carcinoma cells; averages of 2-8 determinations
Summary of the method: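 Survival is given as percent of lipofectin-treated controls, scored as methylene blue-stained colonies after 7–10 days of regrowth. Beforehand, HeLa S3 cultures received a 4 h lipofectin-mediated pulse of oligonucleotide, normally at 0.2 μM.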

[14] = drug 40 μM, with AS-II-2229B-20 0.02 μM
[15] = drug 40 μM, without AS-II-2229B-20
[16] = drug 60 μM, with AS-II-2229B-20 0.02 μM
[17] = drug 60 μM, without AS-II-2229B-20
[18] = drug 20 μM, with AS-II-2229B-20 0.02 μM
[19] = drug 20 μM, without AS-II-2229B-20

Compound	Reduced relative colony forming efficiency, HepG2 (% inhibition of colony forming ability) [4]	Reduced relative colony forming efficiency, PC-3 (% inhibition of colony forming ability) [5]	Reduced relative colony forming efficiency, A549 (% inhibition of colony forming ability) [6]	Reduced relative colony forming efficiency, MIA PaCa-2 (% inhibition of colony forming ability) [7]	Reduced relative colony forming efficiency, T24 (% inhibition of colony forming ability) [8]	Reduced relative colony forming efficiency, 11596 (% inhibition of colony forming ability) [9]	Reduced relative colony forming efficiency, HCT116 (% inhibition of colony forming ability) [10]	Reduced relative colony forming efficiency, T-47D (% inhibition of colony forming ability) [11]	Reduced relative colony forming efficiency, MDA-MB-231 (% inhibition of colony forming ability) [12]	Reduced relative colony forming efficiency, Hela S3 (% inhibition of colony forming ability) [13]	also measured
CN(Cc1cnc2nc(N)nc(N)c2n1)c1ccc(C(=O)N[C@@H](CCC(=O)O)C(=O)O)cc1 [MTX, methotrexate]											Relative colony Forming Efficiency [1, 14]: 25 ± 5; Relative colony Forming Efficiency [1, 15]: 118 ± 32; Relative colony Forming Efficiency [1, 16]: 0; Relative colony Forming Efficiency [1, 17]: 116 ± 13; Relative colony Forming Efficiency [2, 14]: 6.5 ± 5.5; Relative colony Forming Efficiency [2, 15]: 28 ± 10; Relative colony Forming Efficiency [2, 16]: 3.5 ± 0.5; Relative colony Forming Efficiency [2, 17]: 12 ± 0.5
CO[C@@]12[C@H](COC(N)=O)C3=C(C(=O)C(C)=C(N)C3=O)N1C[C@@H]1N[C@@H]12 [Mitomycin C, reference compound]											antitumour effect (tumour weight) ([3]; Example 12.1, mitomycin C 3.5 mg/kg/week i.v., SEQ ID NO:1 6 mg/kg every day i.v.): significant delay of tumour growth; Tumour weight as % of saline control ([3]; HT-29 (colon), Mouse CD-1, Mitomycin C study): 15%
O=C(O)C[C@H](NC(=O)CP(=O)(O)O)C(=O)O [PALA, N-(phosphonacetyl)-L-aspartate]											Relative colony Forming Efficiency [1, 18]: 90 ± 10; Relative colony Forming Efficiency [1, 19]: 350 ± 50; Relative colony Forming Efficiency [2, 18]: 108 ± 7.5; Relative colony Forming Efficiency [2, 19]: 377 ± 21; Relative colony Forming Efficiency ([2]; drug 30 μM, with AS-II-2229B-20 0.02 μM): 101 ± 2.0; Relative colony Forming Efficiency ([2]; drug 30 μM, without AS-II-2229B-20): 311 ± 9.5
G*CG*AAG*CAG*AGC*GAG*CAGC*C (antisense dG*dCdG*dAdAdG*dCdAdG*dAdGdC*dGdAdG*dCdAdGdC*dC) [AS-II-163-20]	18.64%	7.14%	37.13%	9.88%	5.49%	32.08%	29.05%	9.81%	22.73%	45.8%	
GCAGCGAAGCAGAGCGAGCA (antisense dG*dC*dA*dG*dC*dG*dA*dA*dG*dC*dA*dG*dA*dG*dC*dG*dA*dG*dC*dA) [AS-II-166-20]	78.72%	74.11%	81.1%	91.36%	68.99%	61.99%	73.84%	91.4%	29.02%	80.1%	
GCTATTATCGCCGCCGTGAG (antisense dG*dC*dT*dA*dT*dT*dA*dT*dC*dG*dC*dC*dG*dC*dC*dG*dT*dG*dA*dG) [AS-II-1773-20]	58.19%	70.04%	70.11%	45.68%	15.19%	66.04%	75.58%	84.38%	44.76%	80.27%	
GGCGACCCCTCACTCCAGCA (antisense dG*dG*dC*dG*dA*dC*dC*dC*dC*dT*dC*dA*dC*dT*dC*dC*dA*dG*dC*dA) [AS-II-114-20]	78.72%	92.66%	83.51%	90.05%	87.45%	46.3%	86.1%	90.83%	76.22%	79.25%	
